# Values quoted from earlier work as cited in patent US20190364946A1, “POWDERS AND TABLETS COMPRISING OMEGA-3 FATTY ACID DERIVATIVES AND METHODS FOR THEIR PRODUCTION” (OMEGATRI AS, priority 2016, published 2019).
# Details: for Surfactants HLB: HLB of added surfactant or surfactant mixture; for HLB value: from commercial and scientific sources
Surfactants HLB,Substance,HLB value
4.3,Span 80,
1.8,Span 85,
,sorbitan monostearate,4.7
,sorbitan stearate,4.7
